Source: patent US20240158446A1, “CYCLIC COMPOUND HAVING SELECTIVE INHIBITORY ACTION ON KRAS OVER HRAS AND NRAS” (CHUGAI SEIYAKU KABUSHIKI KAISHA, priority 2021, published 2024)

What was measured:
[1] = biological target: GDP-bound KRAS wild-type protein (Homo sapiens, UniProt P01116); experiment: Binding to KRAS by surface plasmon resonance (SPR), Single Cycle Kinetics; settings: SPR Single Cycle Kinetics, GDP-bound KRAS wild-type protein, 1:1 binding model; read-out: KRAS KD
[2] = biological target: GDP-bound HRAS wild-type protein (Homo sapiens, UniProt P01112); experiment: Binding to HRAS by surface plasmon resonance (SPR), Single Cycle Kinetics; settings: SPR KD ratio HRAS/KRAS, class symbols
Sequence of GDP-bound HRAS wild-type protein (P01112 whole entry): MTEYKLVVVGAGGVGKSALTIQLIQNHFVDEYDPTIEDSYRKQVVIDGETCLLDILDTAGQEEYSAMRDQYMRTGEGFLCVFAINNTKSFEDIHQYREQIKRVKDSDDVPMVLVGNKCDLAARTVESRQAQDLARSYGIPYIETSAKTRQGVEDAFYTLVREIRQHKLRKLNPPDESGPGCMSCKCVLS

[3] = system: human lung cancer strain NCI-H441;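 note: cell proliferation inhibition after four days measured by CellTiter-Glo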
[4] = biological target: GDP-bound NRAS wild-type protein (Homo sapiens, UniProt P01111); experiment: Binding to NRAS by surface plasmon resonance (SPR), Single Cycle Kinetics; settings: SPR KD ratio NRAS/KRAS, class symbols
Sequence of GDP-bound NRAS wild-type protein (P01111 whole entry): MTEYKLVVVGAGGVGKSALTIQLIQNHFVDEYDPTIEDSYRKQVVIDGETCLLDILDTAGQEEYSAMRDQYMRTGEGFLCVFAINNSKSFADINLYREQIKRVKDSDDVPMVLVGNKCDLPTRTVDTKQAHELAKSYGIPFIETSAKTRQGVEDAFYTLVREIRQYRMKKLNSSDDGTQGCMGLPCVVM

Sequence of GDP-bound KRAS wild-type protein (P01116 whole entry): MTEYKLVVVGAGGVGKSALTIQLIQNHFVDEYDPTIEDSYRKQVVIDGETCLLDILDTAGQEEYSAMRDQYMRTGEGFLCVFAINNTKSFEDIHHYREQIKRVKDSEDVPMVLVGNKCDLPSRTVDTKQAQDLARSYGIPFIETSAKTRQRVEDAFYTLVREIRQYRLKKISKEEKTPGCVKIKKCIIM

Compound | Kd [1] [nM] | IC50 [3] [nM] | HRAS/KRAS (ratio of KD value with respect to GDP-bound HRAS wild-type protein to KD value with respect to KRAS) [2] | NRAS/KRAS (ratio of KD value with respect to GDP-bound NRAS wild-type protein to KD value with respect to KRAS) [4]
CCO[C@@H]1C[C@H]2C(=O)NC3(CC(C)(C)C3)C(=O)N(C)[C@@H](C3CCCC3)C(=O)N(C)[C@H](C(=O)N3CCCCC3)CC(=O)N(C)[C@@H](COC)C(=O)N[C@@H]([C@@H](C)CC)C(=O)N(C)CC(=O)N(C)[C@H]3C/C=C\CCN(C3=O)[C@@H](Cc3ccc(C)cc3)C(=O)N(C)CC(=O)N[C@@H](CCc3cc(F)c(C(F)(F)F)c(F)c3)C(=O)N2C1 [PP2668] | 0.18 | 10.3 | A (a compound having 10 or more and less than 20 is denoted as A) | A (a compound having 10 or more and less than 20 is denoted as A)
CC[C@H](C)[C@@H]1NC(=O)[C@H](COC)N(C)C(=O)C[C@@H](C(=O)N2CCCCC2)N(C)C(=O)[C@H](C2CCCC2)N(C)C(=O)C2(CC(C)(C)C2)NC(=O)[C@@H]2C[C@@H](OC(C)C)CN2C(=O)[C@H](CCc2cc(F)c(C(F)(F)F)c(F)c2)NC(=O)CN(C)C(=O)[C@H](Cc2ccc(C)cc2)N2CC/C=C\C[C@@H](C2=O)N(C)C(=O)CN(C)C1=O [PP2669] | 0.29 | 18.7 | A (a compound having 10 or more and less than 20 is denoted as A) | A (a compound having 10 or more and less than 20 is denoted as A)
CCO[C@@H]1C[C@H]2C(=O)NC3(CC(C)(C)C3)C(=O)N(C)[C@@H](C3CCCC3)C(=O)N(C)[C@H](C(=O)N3CCCCC3)CC(=O)N(C)[C@@H](COC)C(=O)N[C@@H]([C@@H](C)CC)C(=O)N(C)CC(=O)N(C)[C@H]3C/C=C\CCN(C3=O)[C@@H](Cc3ccc(C(F)(F)F)cc3)C(=O)N(C)CC(=O)N[C@@H](CCc3ccc(Cl)c(Cl)c3)C(=O)N2C1 [PP2670] | 0.48 | 25.2 | A (a compound having 10 or more and less than 20 is denoted as A) | AA (a compound having 20 or more is denoted as AA)
CC[C@H](C)[C@@H]1NC(=O)[C@H](COC)N(C)C(=O)C[C@@H](C(=O)N2CCCCC2)N(C)C(=O)[C@H](C2CCCC2)N(C)C(=O)C2(CC(C)(C)C2)NC(=O)[C@@H]2C[C@@H](OC(C)C)CN2C(=O)[C@H](CCc2ccc(Cl)c(Cl)c2)NC(=O)CN(C)C(=O)[C@H](Cc2ccc(C(F)(F)F)cc2)N2CC/C=C\C[C@@H](C2=O)N(C)C(=O)CN(C)C1=O [PP2671] | 0.67 | 26.3 | A (a compound having 10 or more and less than 20 is denoted as A) | A (a compound having 10 or more and less than 20 is denoted as A)
CCC[C@H]1C(=O)N[C@@H]([C@@H](C)CC)C(=O)N(C2CC2)CC(=O)N(C)[C@H]2C/C=C\CCN(C2=O)[C@@H](Cc2ccc(C)cc2)C(=O)N(C)CC(=O)N[C@@H](CCc2ccc(C(F)(F)F)c(OC)c2)C(=O)N2C[C@H](OCC)C[C@H]2C(=O)NC2(CC(C)(C)C2)C(=O)N(C)[C@@H](CC(C)(C)C)C(=O)N(C)[C@H](C(=O)N(C)C)CC(=O)N1C [PP2722] | 0.4 | 13.9 | B (a compound having 3 or more and less than 10 is denoted as B) | B (a compound having 3 or more and less than 10 is denoted as B)
CCOC[C@H]1C(=O)N[C@@H]([C@@H](C)CC)C(=O)N(C2CC2)CC(=O)N(C)[C@H]2C/C=C\CCN(C2=O)[C@@H](Cc2ccc(C)cc2)C(=O)N(C)CC(=O)N[C@@H](CCc2ccc(C(F)(F)F)c(OC)c2)C(=O)N2C[C@H](OCC)C[C@H]2C(=O)NC2(CC(C)(C)C2)C(=O)N(C)[C@@H](CC(C)(C)C)C(=O)N(C)[C@H](C(=O)N(C)C)CC(=O)N1C [PP2724] | 0.43 | 20 | B (a compound having 3 or more and less than 10 is denoted as B) | A (a compound having 10 or more and less than 20 is denoted as A)

The next lines start with results.

Kd [1] [nM] | IC50 [3] [nM] | Compound | HRAS/KRAS (ratio of KD value with respect to GDP-bound HRAS wild-type protein to KD value with respect to KRAS) [2] | NRAS/KRAS (ratio of KD value with respect to GDP-bound NRAS wild-type protein to KD value with respect to KRAS) [4]
0.076 | 2.3 | CCC[C@H]1C(=O)N[C@@H]([C@@H](C)CC)C(=O)N(C)CC(=O)N(C)[C@H]2C/C=C\CCN(C2=O)[C@@H](Cc2ccc(C)cc2)C(=O)N(C)CC(=O)N[C@@H](CCc2cc(F)c(C(F)(F)F)c(F)c2)C(=O)N2C[C@H](OCC)C[C@H]2C(=O)NC2(CC(C)(C)C2)C(=O)N(C)[C@@H](CC(C)(C)C)C(=O)N(C)[C@H](C(=O)N(C)C)CC(=O)N1C [PP2706] | B (a compound having 3 or more and less than 10 is denoted as B) | A (a compound having 10 or more and less than 20 is denoted as A)
0.072 | 5.1 | CCCOC[C@H]1C(=O)N[C@@H]([C@@H](C)CC)C(=O)N(C)CC(=O)N(C)[C@H]2C/C=C\CCN(C2=O)[C@@H](Cc2ccc(C)cc2)C(=O)N(C)CC(=O)N[C@@H](CCc2cc(F)c(C(F)(F)F)c(F)c2)C(=O)N2C[C@H](OCC)C[C@H]2C(=O)NC2(CC(C)(C)C2)C(=O)N(C)[C@@H](CC(C)(C)C)C(=O)N(C)[C@H](C(=O)N(C)C)CC(=O)N1C [PP2708] | A (a compound having 10 or more and less than 20 is denoted as A) | A (a compound having 10 or more and less than 20 is denoted as A)
0.1 | 5.3 | CCC[C@H]1C(=O)N[C@@H]([C@@H](C)CC)C(=O)N(C)CC(=O)N(C)[C@H]2C/C=C\CCN(C2=O)[C@@H](Cc2ccc(C)cc2)C(=O)N(C)CC(=O)N[C@@H](CCc2ccc(C(F)(F)F)c(OC)c2)C(=O)N2C[C@H](OCC)C[C@H]2C(=O)NC2(CC(C)(C)C2)C(=O)N(C)[C@@H](CC(C)(C)C)C(=O)N(C)[C@H](C(=O)N(C)C)CC(=O)N1C [PP2710] | B (a compound having 3 or more and less than 10 is denoted as B) | B (a compound having 3 or more and less than 10 is denoted as B)
0.11 | 6.3 | CCCOC[C@H]1C(=O)N[C@@H]([C@@H](C)CC)C(=O)N(C)CC(=O)N(C)[C@H]2C/C=C\CCN(C2=O)[C@@H](Cc2ccc(C)cc2)C(=O)N(C)CC(=O)N[C@@H](CCc2ccc(C(F)(F)F)c(OC)c2)C(=O)N2C[C@H](OCC)C[C@H]2C(=O)NC2(CC(C)(C)C2)C(=O)N(C)[C@@H](CC(C)(C)C)C(=O)N(C)[C@H](C(=O)N(C)C)CC(=O)N1C [PP2712] | B (a compound having 3 or more and less than 10 is denoted as B) | A (a compound having 10 or more and less than 20 is denoted as A)
0.25 | 13.2 | CCC[C@H]1C(=O)N[C@@H]([C@@H](C)CC)C(=O)N(C)CC(=O)N(C)[C@H]2C/C=C\CCN(C2=O)[C@@H](Cc2ccc(C)cc2)C(=O)N(C)CC(=O)N[C@@H](CCc2ccc(Cl)c(Cl)c2)C(=O)N2C[C@H](OCC)C[C@H]2C(=O)NC2(CC(C)(C)C2)C(=O)N(C)[C@@H](CC(C)(C)C)C(=O)N(C)[C@H](C(=O)N(C)C)CC(=O)N1C [PP2714] | A (a compound having 10 or more and less than 20 is denoted as A) | A (a compound having 10 or more and less than 20 is denoted as A)
0.34 | 13.8 | CCCOC[C@H]1C(=O)N[C@@H]([C@@H](C)CC)C(=O)N(C)CC(=O)N(C)[C@H]2C/C=C\CCN(C2=O)[C@@H](Cc2ccc(C)cc2)C(=O)N(C)CC(=O)N[C@@H](CCc2ccc(Cl)c(Cl)c2)C(=O)N2C[C@H](OCC)C[C@H]2C(=O)NC2(CC(C)(C)C2)C(=O)N(C)[C@@H](CC(C)(C)C)C(=O)N(C)[C@H](C(=O)N(C)C)CC(=O)N1C [PP2716] | A (a compound having 10 or more and less than 20 is denoted as A) | A (a compound having 10 or more and less than 20 is denoted as A)
0.33 | 7.6 | CCC[C@H]1C(=O)N[C@@H]([C@@H](C)CC)C(=O)N(C2CC2)CC(=O)N(C)[C@H]2C/C=C\CCN(C2=O)[C@@H](Cc2ccc(C)cc2)C(=O)N(C)CC(=O)N[C@@H](CCc2cc(F)c(C(F)(F)F)c(F)c2)C(=O)N2C[C@H](OCC)C[C@H]2C(=O)NC2(CC(C)(C)C2)C(=O)N(C)[C@@H](CC(C)(C)C)C(=O)N(C)[C@H](C(=O)N(C)C)CC(=O)N1C [PP2718] | A (a compound having 10 or more and less than 20 is denoted as A) | A (a compound having 10 or more and less than 20 is denoted as A)
0.35 | 7.7 | CCOC[C@H]1C(=O)N[C@@H]([C@@H](C)CC)C(=O)N(C2CC2)CC(=O)N(C)[C@H]2C/C=C\CCN(C2=O)[C@@H](Cc2ccc(C)cc2)C(=O)N(C)CC(=O)N[C@@H](CCc2cc(F)c(C(F)(F)F)c(F)c2)C(=O)N2C[C@H](OCC)C[C@H]2C(=O)NC2(CC(C)(C)C2)C(=O)N(C)[C@@H](CC(C)(C)C)C(=O)N(C)[C@H](C(=O)N(C)C)CC(=O)N1C [PP2720] | A (a compound having 10 or more and less than 20 is denoted as A) | A (a compound having 10 or more and less than 20 is denoted as A)
